Experimental data reported in ChEMBL document CHEMBL6121044, “Discovery of Novel Spirocyclic MAT2A Inhibitors Demonstrating High In Vivo Efficacy in MTAP-Null Xenograft Models” (J Med Chem, 2025).

Columns and labels:
[1] = In vivo antitumor activity against MTAP-deleted human KP-4 cells xenografted mouse model assessed as tumor growth inhibition at 10 mg/kg, po qd measured after 18 days relative to control; assay type: functional; settings: KP-4, 432 h, time 18 day, read-out: TGI
[2] = Toxicity in mouse xenografted with MTAP-deleted human HCT116 cells assessed as body weight loss at 10 mg/kg, po qd measured after 18 days relative to control; assay type: organism-based; settings: in vivo, 432 h, time 18 day
[3] = Chronic toxicity in female ICR mouse assessed as body weight loss at 10 mg/kg, po once daily measured after 19 days relative to control; assay type: organism-based; settings: in vivo, 456 h, time 19 day
[4] = In vivo antitumor activity against MTAP-deleted human NCI-H838 cells xenografted mouse model assessed as tumor growth inhibition at 3 mg/kg, po qd measured after 18 days relative to control; assay type: functional; settings: NCI-H838, 432 h, time 18 day, read-out: TGI
[5] = Chronic toxicity in male ICR mouse assessed as body weight loss at 10 mg/kg, po once daily measured after 19 days relative to control; assay type: organism-based; settings: in vivo, 456 h, time 19 day
[6] = In vivo antitumor activity against MTAP-deleted human NCI-H838 cells xenografted mouse model assessed as tumor growth inhibition at 10 mg/kg, po qd measured after 18 days relative to control; assay type: functional; settings: NCI-H838, 432 h, time 18 day, read-out: TGI
[7] = tested on: HCT-116; assay: In vivo antitumor activity against MTAP-deleted human HCT-116 cells xenografted mouse model assessed as tumor growth inhibition at 1 mg/kg, po qd measured after 18 days relative to control; assay type: functional; settings: HCT-116, 432 h, time 18 day, read-out: TGI
[8] = tested on: HCT-116; assay: In vivo antitumor activity against MTAP-deleted human HCT-116 cells xenografted mouse model assessed as tumor growth inhibition at 3 mg/kg, po qd measured after 18 days relative to control; assay type: functional; settings: HCT-116, 432 h, time 18 day, read-out: TGI
[9] = Volume of distribution at steady state in male ICR mouse at 2 mg/kg, iv measured upto 24 hrs by LC-MS/MS analysis; assay type: ADME, organism-based; settings: in vivo, read-out: Vdss
[10] = tested on: KP-4; assay: In vivo antitumor activity against human KP-4 cells xenografted mouse model assessed as tumor growth inhibition at 90 mg/kg, po qd measured after 18 days relative to control; assay type: functional; settings: KP-4, 432 h, time 18 day, read-out: TGI
[11] = tested on: HCT-116; assay: In vivo antitumor activity against MTAP-deleted human HCT-116 cells xenografted mouse model assessed as tumor growth inhibition at 10 mg/kg, po qd measured after 18 days relative to control; assay type: functional; settings: HCT-116, 432 h, time 18 day, read-out: TGI
[12] = tested on: HCT-116; assay: In vivo antitumor activity against MTAP-deleted human HCT-116 cells xenografted mouse model assessed as tumor growth inhibition at 30 mg/kg, po qd measured after 18 days relative to control; assay type: functional; settings: HCT-116, 432 h, time 18 day, read-out: TGI

Vd [9] [L/kg]	SMILES	inhibition in vivo at 10 mg/kg [1] [%]	Activity [2]	Activity [3] [%]	inhibition in vivo at 3 mg/kg [4] [%]	Activity [5] [%]	inhibition in vivo at 10 mg/kg [6] [%]	inhibition in vivo at 1 mg/kg [7] [%]	inhibition in vivo at 3 mg/kg [8] [%]	inhibition in vivo at 90 mg/kg [10] [%]	inhibition in vivo at 10 mg/kg [11] [%]	inhibition in vivo at 30 mg/kg [12] [%]
1.7	[2H]C([2H])([2H])NC1=NC(=O)[C@]2(CCc3ncccc32)c2cc(C(F)(F)F)ccc21	80	~ 15%	2.36	61.5	9.77	78.1	61.9	85.9	–	–	–
–	[2H]C([2H])([2H])NC1=NC(=O)[C@]2(CCc3ncccc32)c2cc(C(C)(F)F)ccc21	–	–	–	–	–	–	–	–	74	72.1	85.4
